Like-named read-outs stand apart in the source and are kept apart here.
Experiments:
MCF-10A = assay: Cell viability assay (CellTiter Glo), non-tumorigenic breast epithelial cell line MCF-10A; type: cell-based; details: Homo sapiens, 96 hours
Procedure: (§1) Cell viability assay was performed to assess the potency of the compounds in human cancer cell lines KP4 (pancreatic ductal adenocarcinoma), MiaPaCa-2 (pancreatic carcinoma), AsPC-1 (pancreatic adenocarcinoma, ascites), 143B (osteosarcoma), and SJSA-1 (osteosarcoma). Selected compounds were also assayed in a human breast epithelial cell line MCF-10A, a nontumorigenic cell line as a control to assess differential activity. Cells at a density of 500-5,000 cells/well were seeded in 96-well plates and incubated at 37° C. overnight. A series of 9 different concentrations of compound stocks (500×) were created by 3-fold serial dilution in DMSO. These compounds were further diluted in culture media and then added to cells so that the final DMSO concentration was equal to 0.25% or less. After 96 hours of incubation, 50 μL of CellTiter Glo reagent (Promega) was added to each well and luminescence was measured after 10 minutes using EnVision (PerkinElmer). Compounds titrated from top concentration of up to 30 μM. The select compounds were tested initially from 30 μM as the top concentration in duplicates (range of 4.6 nM-30 μM). […] Luminescence from cells treated with DMSO alone was set as Max and % of inhibition was calculated as follows: Inhibition %=(Max-Sample value)/Max*100. Data was analyzed using XL-fit software (ID Business Solutions Ltd.). IC50, relative IC50, or % of top inhibition was calculated.
Paclitaxel was used as the positive control for cytotoxicity.

MiaPaCa-2 = assay: Cell viability assay (CellTiter Glo), pancreatic carcinoma MiaPaCa-2; type: cell-based; details: Homo sapiens
Procedure: as §1
The results of the assay in the pancreatic cell lines are given in Table 15a for PANC1, Table 15b for MiaPaCa-2, and Table 15c for AsPC-1.

KP4 = assay: Cell viability assay (CellTiter Glo), pancreatic ductal adenocarcinoma KP4; type: cell-based, human; details: Homo sapiens, KP-4, Cell Line KP4; read-out: IC50
Procedure, shortened: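 Luminescent ATP readout (CellTiter Glo) after 96 h compound exposure, normalized to DMSO-treated cells as maximum. Compounds ran in duplicate, nine 3-fold steps from 30 μM down to 4.6 nM, final DMSO ≤0.25%; KP4 plated overnight at 1,000–10,000 cells/well. Outputs: IC50, relative IC50 or % top inhibition.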

A549 = assay: Cell viability assay, A549 cells; type: cell-based; details: Homo sapiens
Procedure: Example 5: Inducer Compound Effect on Growth of A549 and KP4 Cells
as §1, with “in” for “in human”, “line” for “lines”, “adenocarcinoma).” for “adenocarcinoma), MiaPaCa-2 (pancreatic carcinoma), AsPC-1 (pancreatic adenocarcinoma, ascites), 143B (osteosarcoma), and SJSA-1 (osteosarcoma). Selected compounds were also assayed in a human breast epithelial cell line MCF-10A, a nontumorigenic cell line as a control to assess differential activity.”, “1,000-10,000” for “500-5,000”, “All” for “Compounds titrated from top concentration of up to 30 μM. The select”, “calculated. […]” for “calculated.”

A431 = assay: Cell proliferation (Alamar Blue) assay, A431; type: cell-based; details: Homo sapiens, A-431; Cell Line A431
Procedure: Cells (SJSA-1, 786-O and A431) were seeded (5000 cells/100 μL/well) in 96-well tissue culture plate and incubated at 37° C./5% CO2 for 16-24 hours. The cells were then treated with compounds (25 μL of 5×). The compound concentrations were 10-0.0005 μM prepared in 3-fold serial dilutions with final DMSO concentration of 1%. The plates were then incubated for 24 h at 37° C./5% CO2 in a moist environment. Then Alamar Blue™ reagent (final concentration 1×-12.5 μL) was added to each well and incubated for 1.5 hours at 37° C./5% CO2. The plates were read on fluorescence reader at 540 nm excitation and 590 nm emission wavelengths. The IC50 values were subsequently determined using a sigmoidal dose-response curve (variable slope) in GraphPad Prism® 5 software.
The cell proliferation assays for the compounds shown Table 25 was performed according to the protocols described herein, including Examples 4 and 6.

SJSA-1 = assay: Cell proliferation (Alamar Blue) assay, SJSA-1 osteosarcoma, with/without ferrostatin; type: cell-based, human; details: Homo sapiens, SJSA-1, Cell Line SJSA-1; read-out: IC50
Procedure, shortened: (§2)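 Cells seeded at 5000/well, 16-24 h, then exposed 24 h at 37° C to compound, 10-0.0005 μM in 3-fold dilutions, 1% DMSO final. Alamar Blue fluorescence (ex 540/em 590 nm) read after 1.5 h; IC50 from variable-slope sigmoidal fit.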

786-O = assay: Cell proliferation (Alamar Blue) assay, 786-O renal cell carcinoma, with/without ferrostatin; type: cell-based; details: Homo sapiens, 786-0, Cell Line 786-O; read-out: IC50
Procedure, shortened: as §2

[1] = MIA PaCa-2, pancreatic carcinoma, 96 hours, CellTiter Glo, read-out: IC50 MiaPaCa-2

IC50 (MiaPaCa-2; [1]) | IC50 (A431) | IC50 (SJSA-1) | SMILES | IC50 (MCF-10A) | also measured
3630 nM |  |  | CN(C)C(=O)c1ccc([C@H]2c3[nH]c4ccccc4c3C[C@H](C(=O)N(C)C)N2C(=O)CCl)cc1 [Example 38] | 19600 nM | 
 |  |  | COC(=O)c1ccc([C@H]2c3[nH]c4ccccc4c3C[C@H](C(=O)OC)N2C(=O)/C=C/CN(C)C)cc1 [Compound 273] |  | IC50 (KP4): 1710 nM; IC50 (MiaPaCa-2; Cell Line Mia PaCa-2, read-out: IC50): 10 nM; IC50 (A549; A549, Cell Line A549, read-out: IC50): 3230 nM
243 nM |  |  | COCCN(C(=O)c1ccc([C@H]2c3[nH]c4ccccc4c3C[C@H](C(=O)N(C)C)N2C(=O)CCl)cc1)C(C)(C)C [Example 52] | 180 nM | IC50 (A549; A549, A549, read-out: IC50 for A549): 280 to 360 nM
 | > 10000 nM | 1400 nM | C[C@H]1Cc2c([nH]c3ccccc23)[C@H](c2cnn(C3CCOCC3)c2)N1C(=O)CCl [Example 158] |  | 
217 nM |  |  | CN(C)C(=O)[C@H]1Cc2c([nH]c3ccccc23)[C@H](c2ccc(C(=O)N(CCC(=O)OC(C)(C)C)C(C)(C)C)cc2)N1C(=O)CCl [Example 54] | 560 nM | IC50 (A549; A549, A549, unit printed as PM, read-out: IC50 for A549): 790 nM
858 nM |  |  | COC(=O)[C@H]1Cc2c([nH]c3ccccc23)[C@H](c2ccc(C(=O)OC(C)(C)C)cc2)N1C(=O)/C=C/CCl [Example 25] |  | 
 | 2990 nM | 91 nM | C#CC(=O)N1[C@@H](c2ccc(S(=O)(=O)NC3CC3)cc2F)c2[nH]c3ccccc3c2C[C@@H]1C [Example 174] |  | 
 | 2510 nM |  | CC1CN(c2ccc([C@H]3c4[nH]c5ccccc5c4C[C@H](C)N3C(=O)CCl)cc2)CC(C)O1 (stereo partly drawn) [Example 212] |  | IC50 (786-O): 8 nM
 | 10000 nM | 93 nM | C[C@H]1Cc2c([nH]c3ccccc23)[C@H](c2ccc(N3CCOCC3)nc2)N1C(=O)CCl [Example 220] |  | 
 | 2730 nM | 11 nM | C#CCOc1ccc2[nH]c3c(c2c1)C[C@H](C(=O)OC)N(C(=O)CCl)[C@H]3c1ccc(C(=O)NC23CC4CC(CC(C4)C2)C3)cc1 [Example 211] |  | 
40 nM |  |  | COC(=O)C1CCC([C@H]2c3[nH]c4ccccc4c3C[C@H](C(=O)N(C)C)N2C(=O)CCl)CC1 (stereo partly drawn) [Example 41] | 40 nM | 
 | 5400 nM | 4700 nM | C[C@H]1Cc2c([nH]c3ccccc23)C(c2ccc(S(N)(=O)=O)cc2)N1C(=O)CCl (stereo partly drawn) [Example 123] |  | 
3150 nM |  |  | COC(=O)[C@H]1Cc2c([nH]c3ccccc23)[C@@H](c2ccc(S(=O)(=O)N(C)C)cc2)N1C(=O)CCl [Example 23a] |  | 

Reference: patent US11098040B2, “Compounds and methods of use” (Ferro Therapeutics, Inc., priority 2018, dated 2021)
